Results taken from patent publication US20210403485A1, “PYRAZOLOPYRIMIDINE DERIVATIVE AS SELECTIVE TRK INHIBITOR” (SHANDONG LUYE PHARMACEUTICAL CO., LTD., priority 2018, published 2021).
Read-outs that look alike come from different tables or passages of the source.

Experiments:
[1] = biological target: T1, ALK (Homo sapiens, UniProt Q9UM73); test: Kinase inhibitory activity (33P-ATP, filtration-binding method, Reaction Biology Corp.); assay type: biochemical
T1 construct: purchased Reaction Biology Corp
Procedure: The mixture was incubated at room temperature for 20 minutes, added with ^33P-ATP at a certain concentration to start the reaction, and then incubated at room temperature for 120 minutes. Finally, the radioactivity of the reactant was detected by the filtration-binding method. The final kinase activity was expressed as the ratio of the remaining kinase activity in the test sample to the kinase activity of the DMSO control. The dose-response curves were fitted and IC50 values were calculated by GraphPad software.

[2] = Animal body weight and general observations, Ba/F3 ETV6-NTRK3-G623R tumor-bearing nude mice
Procedure: (§11) The mice in groups were intragastrically administrated on the next day, and the animal body weight and the long and short diameters of the tumor were measured once every other day.

[3] = Animal body weight and general observations, Ba/F3 ETV6-NTRK3 tumor-bearing nude mice
Procedure: as §11

[4] = biological target: T2, Ba/F3 SLC34A2-ROS1-WT (Homo sapiens, UniProt P08922); test: Inhibitory activity against cell proliferation (CellTiter-Glo, 72 hours); assay type: cell-based; settings: read-out: Half maximal inhibitory concentration IC50 of cells, Ba/F3 SLC34A2-ROS1-WT
T2 construct: fused on or other part: N-terminal part of SLC34A2 as fusion partner (part of the key); O95436 (Sodium-dependent phosphate transport protein 2B)
Procedure: (§1) Adenosine Triphosphate (ATP) is an energy carrier commonly used in various life activities in nature, and is the minimum unit for energy storage and transfer. The CellTiter-Glo™ cell viability assay kit uses luciferase as an assay agent, which requires the involvement of ATP in luminescence. The CellTiter-Glo™ reagent is added into cell culture medium to measure the luminescence value. The luminescence signal is directly proportional to the amount of ATP in the system, and the ATP is positively correlated with the number of viable cells. Therefore, the proliferation of cells can be detected by detecting the ATP content using the CellTiter-Glo kit.
(§2) a) Cells in the logarithmic growth phase were collected and counted using a […]. The cell viability was detected by the trypan blue exclusion method, and the cell viability was kept over 90%.
(§3) b) The cell concentration was adjusted; 90 μL of the cell suspension was added to a 96-well plate.
(§4) a) A 10-fold compound solution was prepared, with the highest concentration being 10 μM (a total of 9 concentrations, 3-fold dilution). 10 μL of compound solution was added to each well of a 96-well plate inoculated with cells, and three duplicate wells were set for each compound concentration.
(§5) a) The CTG reagent was thawed and the cell plate was equilibrated to room temperature for 30 minutes.
(§6) b) An equal volume of CTG solution was added to each well.
(§7) c) The plate was shaken on an orbital shaker for 5 minutes to lyse the cells.
(§8) d) The cell plate was placed at room temperature for 20 minutes to stabilize the luminescence signal.
(§9) e) The luminescence value was read.
(§10) The data were analyzed using GraphPad Prism 5.0 software, fitted with nonlinear S-curve regression to give dose-response curves, and IC50 values were calculated therefrom.

[5] = Pharmacokinetic test of compounds in mice (plasma, LC/MS/MS); assay type: in vivo, male CD-1 mice; settings: for Vd: read-out: Apparent volume of distribution Vd; for AUC(0-t): read-out: Area under the curve AUC0-last; for half-life: read-out: Half-life T1/2 (converted); for bioavailability: read-out: Bioavailability F %; for Cmax: read-out: Peak concentration Cmax
Procedure: Experimental purpose: male CD-1 mice aged 7-9 weeks were selected as test animals, and the drug concentrations of the compounds in plasma at different time points after single intravenous injection (IV) and intragastric administration (PO) of the compounds were measured by an LC/MS/MS method, so that the pharmacokinetic behavior of the compounds disclosed herein in mice was studied, and the pharmacokinetic characteristic of the compounds was evaluated.
Drug preparation: the compounds were all prepared into clear solution by taking 5% DMSO+10% solutol+85% water as vehicle, and were used for administration in IV and PO groups. The dose of each compound administered was: IV, 3 mg/kg; PO, 10 mg/kg.

[6] = biological target: T3, BaF3 ETV6-NTRK3-G623R (Homo sapiens, UniProt Q16288, G623R, cells depend on it); test: Inhibitory activity against cell proliferation (CellTiter-Glo, 72 hours); assay type: cell-based; settings: read-out: Half maximal inhibitory concentration IC50 of cells, BaF3 ETV6-NTRK3-G623R
T3 construct: fused on or other part: N-terminal part of ETV6 (TEL) as fusion partner (part of the key); P41212 (Transcription factor ETV6)
Procedure: as §1, with “kit. In this test, the cell lines used are Ba/F3 LMNA-NTRK1-WT, Ba/F3 LMNA-NTRK1-F589L, BaF3 LMNA-NTRK1-G595R, BaF3 LMNA-NTRK1-G667A, BaF3 ETV6-NTRK3-WT, BaF3 ETV6-NTRK3-G623R, and Ba/F3 SLC34A2-ROS1-WT stable cell strains, 5000 cells/well.” for “kit.”
as §2, §3
c) Cells in the 96-well plate were incubated overnight at 37° C. with 5% CO2 and 95% humidity.
as §4
b) The cells in the 96-well plate added with compound were incubated for 72 hours at 37° C. with 5% CO2 and 95% humidity, followed by the CTG (CellTiter-Glo) analysis.
as §5, §6, §7, §8, §9, §10

[7] = male, CD-1, mouse, plasma, IV, 3 mg/kg
[8] = male, CD-1, mouse, plasma, PO, 10 mg/kg

T1 sequence (Q9UM73 19-1620): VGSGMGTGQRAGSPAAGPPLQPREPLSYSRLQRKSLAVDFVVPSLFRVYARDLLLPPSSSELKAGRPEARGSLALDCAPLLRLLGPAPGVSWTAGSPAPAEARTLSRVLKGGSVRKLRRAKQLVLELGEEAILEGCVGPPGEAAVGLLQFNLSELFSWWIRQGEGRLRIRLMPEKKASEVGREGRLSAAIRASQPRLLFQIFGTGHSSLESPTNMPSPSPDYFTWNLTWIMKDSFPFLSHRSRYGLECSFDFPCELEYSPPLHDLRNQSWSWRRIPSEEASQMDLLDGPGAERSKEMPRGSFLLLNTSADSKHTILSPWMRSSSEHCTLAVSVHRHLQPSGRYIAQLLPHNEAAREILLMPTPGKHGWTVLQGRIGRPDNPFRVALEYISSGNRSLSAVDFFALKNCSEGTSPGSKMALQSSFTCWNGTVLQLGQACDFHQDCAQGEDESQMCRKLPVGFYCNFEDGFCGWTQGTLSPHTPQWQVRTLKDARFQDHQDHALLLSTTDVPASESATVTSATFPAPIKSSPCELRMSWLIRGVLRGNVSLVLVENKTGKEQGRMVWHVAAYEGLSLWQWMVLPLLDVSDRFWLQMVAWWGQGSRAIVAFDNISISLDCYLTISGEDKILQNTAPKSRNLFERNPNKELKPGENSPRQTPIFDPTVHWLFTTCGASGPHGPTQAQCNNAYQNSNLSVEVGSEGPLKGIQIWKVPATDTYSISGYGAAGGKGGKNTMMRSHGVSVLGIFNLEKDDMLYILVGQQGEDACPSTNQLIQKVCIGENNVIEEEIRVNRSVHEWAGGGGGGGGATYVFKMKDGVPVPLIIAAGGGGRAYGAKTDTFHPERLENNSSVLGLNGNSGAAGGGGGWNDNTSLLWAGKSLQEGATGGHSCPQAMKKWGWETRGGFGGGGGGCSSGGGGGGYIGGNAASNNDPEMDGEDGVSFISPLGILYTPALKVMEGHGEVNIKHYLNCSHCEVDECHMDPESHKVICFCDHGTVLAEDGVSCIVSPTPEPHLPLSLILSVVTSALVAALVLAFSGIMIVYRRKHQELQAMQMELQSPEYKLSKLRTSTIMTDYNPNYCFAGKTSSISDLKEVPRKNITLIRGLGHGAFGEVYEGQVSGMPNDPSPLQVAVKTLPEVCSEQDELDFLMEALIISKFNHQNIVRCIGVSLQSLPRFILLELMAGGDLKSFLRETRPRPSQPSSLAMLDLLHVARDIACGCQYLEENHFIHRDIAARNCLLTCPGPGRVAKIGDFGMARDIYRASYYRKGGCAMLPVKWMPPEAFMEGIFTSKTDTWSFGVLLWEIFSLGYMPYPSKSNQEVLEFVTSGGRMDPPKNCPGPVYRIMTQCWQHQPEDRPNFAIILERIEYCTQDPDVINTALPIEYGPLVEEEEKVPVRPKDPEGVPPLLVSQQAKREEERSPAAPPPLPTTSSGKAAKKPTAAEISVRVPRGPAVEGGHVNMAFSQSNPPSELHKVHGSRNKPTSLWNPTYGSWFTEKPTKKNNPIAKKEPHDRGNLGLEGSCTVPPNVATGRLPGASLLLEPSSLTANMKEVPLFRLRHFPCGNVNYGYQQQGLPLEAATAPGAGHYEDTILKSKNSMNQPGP
T2 sequence (P08922 whole entry, stated change not applied, the tested form may be a part): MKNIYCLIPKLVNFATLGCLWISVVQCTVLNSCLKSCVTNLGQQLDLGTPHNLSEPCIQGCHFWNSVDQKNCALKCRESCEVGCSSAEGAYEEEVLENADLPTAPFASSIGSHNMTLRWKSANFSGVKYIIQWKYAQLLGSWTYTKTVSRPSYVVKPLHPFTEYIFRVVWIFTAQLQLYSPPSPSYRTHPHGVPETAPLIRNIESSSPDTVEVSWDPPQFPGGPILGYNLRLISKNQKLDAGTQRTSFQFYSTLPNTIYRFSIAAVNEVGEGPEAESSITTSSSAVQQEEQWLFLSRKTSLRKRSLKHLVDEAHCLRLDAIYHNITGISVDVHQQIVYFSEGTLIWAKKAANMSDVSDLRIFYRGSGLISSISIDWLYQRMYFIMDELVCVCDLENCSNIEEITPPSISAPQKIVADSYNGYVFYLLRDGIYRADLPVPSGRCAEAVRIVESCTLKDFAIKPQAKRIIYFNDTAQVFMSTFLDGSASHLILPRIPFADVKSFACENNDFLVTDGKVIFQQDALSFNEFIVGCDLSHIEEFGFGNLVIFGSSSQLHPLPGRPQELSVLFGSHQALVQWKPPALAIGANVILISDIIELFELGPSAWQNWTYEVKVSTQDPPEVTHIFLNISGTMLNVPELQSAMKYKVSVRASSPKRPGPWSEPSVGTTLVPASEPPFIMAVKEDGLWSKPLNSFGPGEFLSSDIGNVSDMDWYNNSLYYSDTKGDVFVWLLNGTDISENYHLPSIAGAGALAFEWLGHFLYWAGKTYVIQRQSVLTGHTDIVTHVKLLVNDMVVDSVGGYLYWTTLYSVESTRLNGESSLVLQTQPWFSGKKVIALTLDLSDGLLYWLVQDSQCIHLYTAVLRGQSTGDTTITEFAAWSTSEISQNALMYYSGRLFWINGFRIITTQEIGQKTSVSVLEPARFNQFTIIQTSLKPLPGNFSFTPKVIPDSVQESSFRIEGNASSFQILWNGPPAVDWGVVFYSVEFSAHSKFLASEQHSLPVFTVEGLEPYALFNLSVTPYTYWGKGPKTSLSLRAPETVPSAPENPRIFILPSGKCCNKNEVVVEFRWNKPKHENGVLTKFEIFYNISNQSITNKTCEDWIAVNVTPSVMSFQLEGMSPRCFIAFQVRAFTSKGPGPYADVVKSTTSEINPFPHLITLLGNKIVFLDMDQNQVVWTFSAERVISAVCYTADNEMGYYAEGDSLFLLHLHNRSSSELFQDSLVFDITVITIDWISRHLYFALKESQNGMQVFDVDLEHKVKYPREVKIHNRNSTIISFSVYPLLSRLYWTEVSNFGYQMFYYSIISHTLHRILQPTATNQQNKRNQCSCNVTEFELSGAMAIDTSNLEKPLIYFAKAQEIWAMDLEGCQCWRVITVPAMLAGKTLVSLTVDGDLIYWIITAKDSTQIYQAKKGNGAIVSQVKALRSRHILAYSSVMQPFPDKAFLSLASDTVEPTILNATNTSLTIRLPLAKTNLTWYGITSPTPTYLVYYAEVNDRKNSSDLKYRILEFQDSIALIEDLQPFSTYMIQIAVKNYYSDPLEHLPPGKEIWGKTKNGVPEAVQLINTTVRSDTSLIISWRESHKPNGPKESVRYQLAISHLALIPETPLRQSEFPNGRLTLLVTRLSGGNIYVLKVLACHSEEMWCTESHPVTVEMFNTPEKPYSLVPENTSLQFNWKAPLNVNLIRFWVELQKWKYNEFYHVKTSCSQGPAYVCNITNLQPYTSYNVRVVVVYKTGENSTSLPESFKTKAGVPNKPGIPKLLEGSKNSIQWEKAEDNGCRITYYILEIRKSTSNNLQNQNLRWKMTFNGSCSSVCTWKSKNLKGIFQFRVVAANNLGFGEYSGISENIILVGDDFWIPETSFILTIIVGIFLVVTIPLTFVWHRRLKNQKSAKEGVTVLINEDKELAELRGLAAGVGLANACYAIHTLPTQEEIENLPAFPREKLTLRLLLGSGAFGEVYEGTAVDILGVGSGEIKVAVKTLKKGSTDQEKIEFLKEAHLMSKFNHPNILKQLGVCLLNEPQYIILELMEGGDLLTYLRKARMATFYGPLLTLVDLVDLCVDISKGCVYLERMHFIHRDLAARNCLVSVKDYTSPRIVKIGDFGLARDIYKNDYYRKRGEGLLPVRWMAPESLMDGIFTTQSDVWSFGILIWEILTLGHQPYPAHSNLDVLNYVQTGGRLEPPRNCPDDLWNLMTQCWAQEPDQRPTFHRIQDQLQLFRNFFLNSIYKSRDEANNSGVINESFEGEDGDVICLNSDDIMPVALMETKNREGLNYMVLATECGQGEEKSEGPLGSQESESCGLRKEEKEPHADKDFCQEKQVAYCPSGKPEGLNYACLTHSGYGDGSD
T3 sequence (Q16288 whole entry G623R, the tested form may be a part): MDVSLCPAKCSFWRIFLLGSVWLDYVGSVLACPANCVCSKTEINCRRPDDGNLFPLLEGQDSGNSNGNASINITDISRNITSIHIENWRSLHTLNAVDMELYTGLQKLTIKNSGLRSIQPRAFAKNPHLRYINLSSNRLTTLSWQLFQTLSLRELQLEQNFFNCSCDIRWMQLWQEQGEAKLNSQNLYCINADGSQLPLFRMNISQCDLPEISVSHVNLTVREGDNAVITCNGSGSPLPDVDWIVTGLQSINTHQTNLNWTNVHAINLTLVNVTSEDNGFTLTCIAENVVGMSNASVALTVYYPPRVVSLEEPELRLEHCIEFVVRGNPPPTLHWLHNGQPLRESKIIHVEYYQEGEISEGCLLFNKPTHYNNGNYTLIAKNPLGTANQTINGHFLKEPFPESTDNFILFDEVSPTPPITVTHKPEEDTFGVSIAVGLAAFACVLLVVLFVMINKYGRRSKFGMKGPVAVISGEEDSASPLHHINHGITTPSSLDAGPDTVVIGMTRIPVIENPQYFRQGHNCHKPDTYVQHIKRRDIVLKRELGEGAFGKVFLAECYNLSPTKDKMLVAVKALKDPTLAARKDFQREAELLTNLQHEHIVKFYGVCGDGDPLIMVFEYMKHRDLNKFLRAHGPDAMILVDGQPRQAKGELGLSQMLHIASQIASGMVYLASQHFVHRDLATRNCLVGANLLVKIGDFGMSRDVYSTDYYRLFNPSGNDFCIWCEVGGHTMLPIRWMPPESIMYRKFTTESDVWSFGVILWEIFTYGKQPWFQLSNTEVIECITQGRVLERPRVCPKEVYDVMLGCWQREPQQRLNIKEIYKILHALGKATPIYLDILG

O=C1NC2(CC2)COc2ncc(F)cc2C2COCCN2c2ccn3ncc1c3n2 (single isomer, unassigned) [WX001B]
IC50 [1]: 182 nM | Rate of change in body weight (%) of day 11 to day 0 ([2]; 2.5 mg/kg bid): 13.8% | Rate of change in body weight (%) of day 11 to day 0 ([2]; 5 mg/kg bid): 14.3% | Rate of change in body weight (%) of day 11 to day 0 ([2]; 10 mg/kg bid): 15.6% | Rate of change in body weight (%) of day 11 to day 0 ([2]; 20 mg/kg bid): 8.8% | Tolerance (body weight course) ([2]; 2.5-20 mg/kg bid): good tolerance | Body weight ([2]; Day 0, 2.5 mg/kg bid): 23.6 ± 1.7 g | Body weight ([2]; Day 0, 5 mg/kg bid): 24.4 ± 1.9 g | Body weight ([2]; Day 0, 10 mg/kg bid): 23.6 ± 2.2 g | Body weight ([2]; Day 0, 20 mg/kg bid): 24.1 ± 2.3 g | Body weight ([2]; Day 3, 2.5 mg/kg bid): 24.6 ± 1.7 g | Body weight ([2]; Day 3, 5 mg/kg bid): 25.7 ± 1.9 g | Body weight ([2]; Day 3, 10 mg/kg bid): 24.9 ± 2.1 g | Body weight ([2]; Day 3, 20 mg/kg bid): 25.9 ± 2.8 g | Body weight ([2]; Day 5, 2.5 mg/kg bid): 25.5 ± 1.8 g | Body weight ([2]; Day 5, 5 mg/kg bid): 26.5 ± 1.9 g | Body weight ([2]; Day 5, 10 mg/kg bid): 26.3 ± 2.2 g | Body weight ([2]; Day 5, 20 mg/kg bid): 26.9 ± 2.9 g | Body weight ([2]; Day 7, 2.5 mg/kg bid): 26.1 ± 2.1 g | Body weight ([2]; Day 7, 5 mg/kg bid): 27.1 ± 1.8 g | Body weight ([2]; Day 7, 10 mg/kg bid): 26.7 ± 2.2 g | Body weight ([2]; Day 7, 20 mg/kg bid): 26.6 ± 3.2 g | Body weight ([2]; Day 9, 2.5 mg/kg bid): 26.5 ± 1.8 g | Body weight ([2]; Day 9, 5 mg/kg bid): 27.9 ± 1.9 g | Body weight ([2]; Day 9, 10 mg/kg bid): 26.8 ± 2.2 g | Body weight ([2]; Day 9, 20 mg/kg bid): 26.4 ± 3.5 g | Body weight ([2]; Day 11, 2.5 mg/kg bid): 26.8 ± 2.0 g | Body weight ([2]; Day 11, 5 mg/kg bid): 27.9 ± 2.6 g | Body weight ([2]; Day 11, 10 mg/kg bid): 27.3 ± 2.2 g | Body weight ([2]; Day 11, 20 mg/kg bid): 26.3 ± 3.9 g | Rate of change in body weight (%) of day 11 to day 0 ([3]; 2.5 mg/kg bid): 4.9% | Rate of change in body weight (%) of day 11 to day 0 ([3]; 5 mg/kg bid): 5.0% | Rate of change in body weight (%) of day 11 to day 0 ([3]; 10 mg/kg bid): 4.8% | Rate of change in body weight (%) of day 11 to day 0 ([3]; 20 mg/kg bid): 5.1% | Body weight ([3]; Day 0, 2.5 mg/kg bid): 22.9 ± 1.6 g | Body weight ([3]; Day 0, 5 mg/kg bid): 23.5 ± 1.6 g | Body weight ([3]; Day 0, 10 mg/kg bid): 23.3 ± 0.9 g | Body weight ([3]; Day 0, 20 mg/kg bid): 23.2 ± 1.9 g | Body weight ([3]; Day 3, 2.5 mg/kg bid): 24.2 ± 2.0 g | Body weight ([3]; Day 3, 5 mg/kg bid): 25.5 ± 1.8 g | Body weight ([3]; Day 3, 10 mg/kg bid): 24.9 ± 0.7 g | Body weight ([3]; Day 3, 20 mg/kg bid): 25.1 ± 2.5 g | Body weight ([3]; Day 5, 2.5 mg/kg bid): 24.8 ± 1.8 g | Body weight ([3]; Day 5, 5 mg/kg bid): 26.4 ± 1.6 g | Body weight ([3]; Day 5, 10 mg/kg bid): 25.8 ± 0.7 g | Body weight ([3]; Day 5, 20 mg/kg bid): 26.2 ± 2.8 g | Body weight ([3]; Day 7, 2.5 mg/kg bid): 25.4 ± 2.0 g | Body weight ([3]; Day 7, 5 mg/kg bid): 27.5 ± 1.7 g | Body weight ([3]; Day 7, 10 mg/kg bid): 26.3 ± 1.1 g | Body weight ([3]; Day 7, 20 mg/kg bid): 27.2 ± 2.7 g | Body weight ([3]; Day 9, 2.5 mg/kg bid): 25.5 ± 1.8 g | Body weight ([3]; Day 9, 5 mg/kg bid): 27.5 ± 2.3 g | Body weight ([3]; Day 9, 10 mg/kg bid): 26.4 ± 1.1 g | Body weight ([3]; Day 9, 20 mg/kg bid): 27.7 ± 2.9 g | Body weight ([3]; Day 11, 2.5 mg/kg bid): 25.7 ± 1.9 g | Body weight ([3]; Day 11, 5 mg/kg bid): 27.8 ± 2.2 g | Body weight ([3]; Day 11, 10 mg/kg bid): 26.4 ± 1.4 g | Body weight ([3]; Day 11, 20 mg/kg bid): 27.6 ± 3.5 g | General observations: survival ([3]; all animals in all dose groups): survived until the end of administration | Tolerance (body weight course) ([3]; all dose groups, 2.5-20 mg/kg bid): good tolerance | GI50 [4]: 64.2 nM | Apparent clearance Cl ([5]; IV, 3 mg/kg): 7.33 mL/min/kg | Vd [5, 7]: 0.77 L/kg | AUC(0-t) [5, 7]: 16.6 µM·h | half-life [5, 7]: 94.8 min | AUC(0-t) [5, 8]: 49.1 µM·h | bioavailability [5, 8]: 89% | Cmax [5, 8]: 12.2 µM | GI50 [6]: 2.3 nM

O=C(Nc1cnn2ccc(N3CCC[C@@H]3c3cc(F)ccc3F)nc12)N1CC[C@H](O)C1 [LOXO-101, larotrectinib, reference compound]
IC50 ([1]; read-out: Half maximal inhibitory concentration IC50 for kinases, ALK): > 1000 nM | Rate of change in body weight (%) of day 11 to day 0 ([2]; 60 mg/kg qd): 6.8% | Body weight ([2]; Day 0, 60 mg/kg qd): 23.9 ± 1.4 g | Body weight ([2]; Day 3, 60 mg/kg qd): 24.2 ± 1.8 g | Body weight ([2]; Day 5, 60 mg/kg qd): 24.1 ± 2.0 g | Body weight ([2]; Day 7, 60 mg/kg qd): 25.0 ± 2.2 g | Body weight ([2]; Day 9, 60 mg/kg qd): 25.3 ± 2.2 g | Body weight ([2]; Day 11, 60 mg/kg qd): 25.6 ± 2.4 g | Rate of change in body weight (%) of day 11 to day 0 ([3]; 60 mg/kg qd): 4.4% | Body weight ([3]; Day 0, 60 mg/kg qd): 23.8 ± 1.6 g | Body weight ([3]; Day 3, 60 mg/kg qd): 22.9 ± 2.0 g | Body weight ([3]; Day 5, 60 mg/kg qd): 23.6 ± 2.2 g | Body weight ([3]; Day 7, 60 mg/kg qd): 23.9 ± 2.5 g | Body weight ([3]; Day 9, 60 mg/kg qd): 24.2 ± 2.2 g | Body weight ([3]; Day 11, 60 mg/kg qd): 24.7 ± 2.7 g | GI50 [4]: > 1000 nM | Apparent clearance Cl ([5]; IV, 3 mg/kg): 37.4 mL/min/kg | Vd [5, 7]: 0.97 L/kg | AUC(0-t) [5, 7]: 3.12 µM·h | half-life [5, 7]: 23.4 min | AUC(0-t) [5, 8]: 2.89 µM·h | bioavailability [5, 8]: 28% | Cmax [5, 8]: 1.55 µM | Tmax ([5]; male, CD-1, mouse, plasma, PO, 10 mg/kg, read-out: Time to peak Tmax): 22.8 min | GI50 [6]: 394 nM
